Assays:
[1] = system: human dermal fibroblasts (HDF); test: CCK-8 cell growth analysis in human fibroblasts; format: cell-based
Experimental: Each cell was treated in a serum-free culture solution containing 0.5 μM doxorubicin for 4 hours. After washing the cells with a serum-free culture solution, the cells were cultured for 4 days in a culture solution containing 10% FBS, and then cellular aging was confirmed by staining with senescence-associated beta galactosidase (SAβG). After dispensing 2×10^5 cells in a 100 mm culture dish, they were cultured in a 37° C., 5% CO2 incubator. When the cells grew to 80-90% in the culture dish, the cells were removed by treatment with trypsin-EDTA, and the number of cells was measured, and the cell population doubling time (PDT) was measured. After each sample was dissolved in DMSO, young cells, replicative senescent cells, and premature senescent cells treated with doxorubicin were treated with 100 nM zotarolimus, 100 nM rapamycin, 100 nM ABT263, respectively. […] Then, the absorbance was measured at 450 nm using a microplate reader. The degree of cell growth was expressed as a relative value for the absorbance of the control group treated with only DMSO as 100%. […]

[2] = system: human retinal pigmented epithelial cells (ARPE-19); test: CCK-8 cell growth analysis in retinal pigmented epithelial cells; format: cell-based; conditions: young vs senescent retinal pigmented epithelial cells; concentration-dependent
Experimental: Each cell was treated in a serum-free culture solution containing 0.5 μM doxorubicin for 4 hours. After washing the cells with a serum-free culture solution, the cells were cultured for 4 days in a culture solution containing 10% FBS, and then cellular aging was confirmed by staining with senescence-associated beta galactosidase (SAβG). After each sample was dissolved in DMSO, young cells, replicative senescent cells, and premature senescent cells treated with doxorubicin were treated with 100 nM zotarolimus, 100 nM rapamycin, 100 nM ABT263, respectively. After incubation for 4 days in a 37° C., 5% CO2 incubator, the degree of cell growth was confirmed by CCK-8 analysis, the degree of cellular aging was confirmed by senescence-related beta-galactosidase (SAβG) staining, Young cells (1×10^3 cells/well) or senescent cells (2×10^3 cells/well) were dispensed into a 96-well plate, and cultured overnight in a 37° C., 5% CO2 incubator. Zotarolimus, ABT263 and rapamycin were treated at each concentration, and then incubated for 4 days in a 37° C., 5% CO2 incubator. […] Then, the absorbance was measured at 450 nm using a microplate reader. The degree of cell growth was expressed as a relative value for the absorbance of the control group treated with only DMSO as 100%. […]

For `CO[C@H]1C[C@@H]2CC[C@@H](C)[C@@](O)(O2)C(=O)C(=O)N2CCCC[C@H]2C(=O)O[C@H]([C@H](C)C[C@@H]2CC[C@H](n3cnnn3)[C@H](OC)C2)CC(=O)[C@H](C)/C=C(\C)[C@@H](O)[C@@H](OC)C(=O)[C@H](C)C[C@H](C)/C=C/C=C/C=C/1C` [zotarolimus], which “cell growth (CCK-8)” value ([1]; premature senescent fibroblasts by doxorubicin, 100 nM, 4 days, vs DMSO) is on record?
Its value is “significantly decreased”.

And the “cell growth with increasing concentration of zotarolimus” value ([1]; young vs replicative senescent fibroblasts, concentration-dependent)?
The value was “more markedly decreased in senescent cells compared to young cells”.

And the “cell growth with increasing concentrations of zotarolimus” value [2]?
Its value is “significantly decreased in senescent cells compared to young cells”.

— US20220023271A1, “COMPOSITION FOR PREVENTING OR TREATING CELLULAR SENESCENCE-RELATED DISEASES COMPRISING ZOTAROLIMUS AS ACTIVE INGREDIENT” (RESEARCH COOPERATION FOUNDATION OF YEUNGNAM UNIVERSITY, priority 2018, published 2022)
